The results in this text go back to patent publication US9687432B2, “Antimicrobial bispyridine amine compositions and uses” (LONZA INC., priority 2012, dated 2017).

Common to all, as to assay: MIC test against skin microorganisms
What all share (format): cell-based

The subject of assay [1] is Staphylococcus epidermidis (12228). The note with it: 48 hrs at 36° C., two different sets. The method, then: (§1) MICs for the organisms were determined using a standard 96-well microtiter plate assay in Trypic Soy Broth (TSB). […] Bacteria were grown in Tryptic Soy Broth or Brain Heart Infusion (E. hirae) for 24 hrs and were adjusted to one million cells per milliliter in same type of broth. Following incubation (48 hrs at 36° C.), the lowest concentration of test compound inhibiting growth was recorded as the Minimum Inhibitory Concentration (MIC). The actives were serially diluted and tested at final concentrations ranging from 156.3-0.61 ppm. MIC was run for two different sets.
(§2) Bacteria were grown overnight in Tryptic Soy Brother (TSB) or Brain Heart Infusion (BHI) and were adjusted to approximately 1×10^6 colony forming units per ml (cfu/ml) and used to inoculate the wells. Final bacterial concentration in the test wells was 5×10^5 cfu/ml. For Corynebacterium spp, TSB was used for the first set and BHI for the second set. Inoculated microtiter plates were incubated at 36° C. for 48 hours.
(§3) The lowest concentration of test compound inhibiting growth was recorded as the minimum inhibitory concentration.

The subject of assay [2] is Staphylococcus haemolyticus (29970). Particulars: 48 hrs at 36° C., two different sets. As for the experimental part:
as §1, §2, §3

The test system of assay [3] is Bacillus licheniformis (14580). Particulars: 48 hrs at 36° C., two different sets. As for the experimental part:
as §1, §2, §3

Assay [4] has as its system Corynebacterium xerosis (373). Particulars: 48 hrs at 36° C., TSB first set, BHI second set. As for the experimental part: as §1, §2, §3
In assay [5] the test system is Corynebacterium minutissimum (23348). Particulars: 48 hrs at 36° C., TSB first set, BHI second set. As for the experimental part: as §1, §2, §3

`CCCCCCCCCCCCCCCCCC(=O)O.CCCCCCCCCCCCCCCCCC(=O)O.CCCCCCCCN=c1ccn(CCCCCCCCCCn2ccc(=NCCCCCCCC)cc2)cc1` [Octenidine distearate, octenidine distearate]: the “MIC (ppm)” value was 4.88-9.76 ppm in assay [1]; 4.88-9.76 ppm in assay [2]; 9.76-19.53 ppm in assay [3]; 39.06 ppm in assay [4]; 2.44-39.06 ppm in assay [5].
